We go through 1 molecule from patent US7973219B2, “Method for producing transgenic plants resistant to weed control compounds which disrupt the porphyrin pathways of plants” (Sumitomo Chemical Company, Limited, priority 1998, dated 2011).

Assay [1] has as its system tobacco introduced with the gene encoding the variant barley ferrochelatase. Nature of the assay: Leaf piece chlorophyll test, tobacco with gene encoding variant barley ferrochelatase. It counts as in vivo. Particulars: Table 12; for Resistant level to test compound: same manner as Example 6 (0.3 ppm), treated vs untreated leaf pieces; for Total chlorophyll content treated-leaf: same manner as Example 6 (0.3 ppm, 7 days in light). An excerpt:
The tobacco leaves into which bchH gene was introduced and control recombinant tobacco leaves obtained in Example 5 were collected and each leaf was divided into the right and left equivalent pieces along the main vein, respectively. To one piece was applied an aqueous solution containing 0.3 ppm PPO inhibitory-type herbicidal compound of Structure 8, while, to the other piece was not applied the compound. These leaf pieces were placed on MS medium containing 0.8% agar and allowed to stand at room temperature for 7 days in light place. Then, each leaf piece was ground with pestle and mortar in 5 ml of 80% aqueous acetone solution to extract chlorophyll. The extract liquid was diluted with 80% aqueous acetone solution and the absorbance was measured at 750 nm, 663 nm and 645 nm to calculate total chlorophyll content according to the method described by Macknney G., J. Biol. Chem. (1941) 140, p 315. The results obtained from 4 clones of tobacco into which bchH gene was introduced (BCH1 to 4) and control recombinant tobacco is shown in Table 4. In the table, the resistant level to the herbicidal compound was represented by percentages of the total chlorophyll content of leaf pieces treated with herbicidal compound to that of untreated leaf pieces.
Leaf pieces of tobacco cultured sterilely were infected with said Agrobacterium strain and, according to the same manner as in Example 5, tobacco into which the gene encoding the variant barley ferrochelatase was introduced was obtained.
The level of resistance to the PPO inhibitory-type herbicidal compound represented by Structure 8 was confirmed quantitatively by testing tobacco into which the gene encoding the variant barley ferrochelatase prepared in Example 21 was introduced according to the same manner as in Example 6. The results obtained from 4 clones (HVF 1-4) of tobacco introduced with the gene encoding the variant barley ferrochelatase and control recombinant tobacco are shown in table 12. In the table, the resistant levels to the herbicidal compound are represented by percentages of the total chlorophyll content of leaf pieces treated with herbicidal compound to that of untreated leaf pieces.

Assay [2] concerns E. coli BT3/pACYCSP+pHEMF strain. Nature of the assay: Growth of E. coli BT3/pACYCSP+pHEMF (E. coli hemF) with herbicidal compound. It counts as cell-based, Escherichia coli. The settings on record: 18 hours culture, Table 14. An excerpt: According to the description of Gibson, L. C. D. et al., Proc. Natl. Acad. Sci. USA, 92; p 1941 (1995), the DNA fragment containing bchH gene prepared in Example 1 was digested with the restriction enzymes NdeI and BglII. The resultant DNA fragment was inserted between NdeI restriction site and BamHI restriction site of expression vector pET11a (manufactured by Stratagene) to obtain plasmid pETBCH (FIG. 1). This plasmid pETBCH was introduced into E. coli BL21(DE3) strain competent cells (manufactured by Stratagene) according to the manual attached to the competent cells to obtain E. coli BL21(DE3)/pETBCH strain. The strain was inoculated into 1.5 ml LB liquid culture medium (1% tryptone, 0.5% yeast extract, 0.5% NaCl) containing 100 μg/ml ampicillin in a tube (14×10 mm), and the tube was covered with aluminum foil (hereinafter referred to as dark conditions), cultured with shaking at 37° C. under light of fluorescent lamp (about 8000 lux). When the absorbance at 600 nm of the liquid culture medium became about 0.6, isopropyl β-D-thiogalactopyranoside (IPTG) was added to the liquid culture medium so that the final concentration was 0.4 mM, and the culture was continued for about additional 20 hours. […] In contrast to this, when E. coli BL21(DE3)/pETBCH strain was cultured according to the same manner (with IPTG) except that the tube was not covered with aluminum foil (hereinafter referred to as light conditions), E. coli grew and turned red as above.
The DNA fragment containing hemF gene amplified by the method described in Example 26 was digested with restriction enzymes FbaI and PstI, and inserted between BamHI restriction site and PstI restriction site of commercially available plasmid […] (manufactured by Takara Shuzo Co., Ltd.) to construct plasmid pHEMF (FIG. 16).
The plasmid pHEMF and pTV118N were introduced into E. coli BT3/pACYCSP strain prepared in Example 3 respectively according to the method described in Hanahan, D. J., Mol. Biol., 166; p 557 (1983). […]
These E. coli strains were inoculated into YPT medium containing 10 or 1 ppm of the PPO inhibitory-type herbicidal compound represented by Structure 8, 100 μg/ml ampicillin, 15 μg/ml chloramphenicol, 10 μg/ml kanamycin, 10 μg/ml hemin and 50 μg/ml aminolevulinic acid, cultured under dark conditions or light conditions according to the same manner as in Example 2. Then, 18 hours after initiation of culture, the absorbance of liquid culture medium was measured at 600 nm. By taking the absorbance of the medium without the herbicidal compound as I, the relative value of the absorbance of the medium containing the herbicidal compound was calculated.

Structures are written as SMILES.

On to `C#CCOc1cc(N2C(=O)C3=C(CCCC3)C2=O)c(F)cc1Cl` [Structure 8], for which the “Resistant level to test compound” value turned out to be 106% in assay [1] (clone HVF-1), 102% in assay [1] (clone HVF-2), 98.1% in assay [1] (clone HVF-3) and 95.9% in assay [1] (clone HVF-4). Moreover, the “Total chlorophyll content treated-leaf” value is recorded as 0.930 mg/g-fresh weight in assay [1] (clone HVF-1), 1.16 mg/g-fresh weight in assay [1] (clone HVF-2), 1.04 mg/g-fresh weight in assay [1] (clone HVF-3) and 1.42 mg/g-fresh weight in assay [1] (clone HVF-4). Besides, the Relative absorbance in assay [2] (in the dark, 1 ppm) is 0.95; in assay [2] (in the dark, 10 ppm), 0.94; in assay [2] (in the light, 1 ppm), 1.0; in assay [2] (in the light, 10 ppm) it was 0.48.
